One assay deals with CDK2/Cyclin E1 (Homo sapiens (Human), UniProt P24941). Briefly: biochemical. The conditions noted are these: CDK2_Ki (nM), phosphorylated CDK2/Cyclin E1, 150 μM ATP, Morrison tight-binding fit.
For another assay, the target named is CDK6/Cyclin D1 (Homo sapiens (Human), UniProt Q00534). Kind of assay: biochemical. The conditions noted are these: CDK6_Ki (nM), non-phosphorylated CDK6/Cyclin D1, 2 mM ATP, Morrison fit.

Each structure is given as a SMILES string.

Chain of CDK6/Cyclin D1 (Q00534 whole entry): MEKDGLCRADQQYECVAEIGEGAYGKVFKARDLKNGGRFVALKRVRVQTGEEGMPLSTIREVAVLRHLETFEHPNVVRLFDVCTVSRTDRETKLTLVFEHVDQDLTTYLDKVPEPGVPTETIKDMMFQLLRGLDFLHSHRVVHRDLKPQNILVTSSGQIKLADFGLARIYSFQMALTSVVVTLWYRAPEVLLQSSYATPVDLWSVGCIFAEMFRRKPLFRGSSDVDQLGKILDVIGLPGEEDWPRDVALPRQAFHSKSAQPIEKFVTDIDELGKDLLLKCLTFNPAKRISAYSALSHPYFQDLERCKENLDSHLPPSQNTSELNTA
Chain of CDK6/Cyclin D1 (P24385 whole entry partner): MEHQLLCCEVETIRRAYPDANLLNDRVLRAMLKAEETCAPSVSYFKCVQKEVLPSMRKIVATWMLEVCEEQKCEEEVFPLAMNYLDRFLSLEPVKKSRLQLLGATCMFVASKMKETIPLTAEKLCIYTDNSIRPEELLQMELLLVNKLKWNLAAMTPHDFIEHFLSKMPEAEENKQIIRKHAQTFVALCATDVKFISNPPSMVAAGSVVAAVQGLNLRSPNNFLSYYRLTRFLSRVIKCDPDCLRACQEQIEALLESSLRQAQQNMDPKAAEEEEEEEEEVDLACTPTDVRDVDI
Description for CDK2/Cyclin E1: The assay was initiated with the addition of ATP, following a fifteen minutes pre-incubation of enzyme and inhibitor at room temperature in the reaction mixture. The reaction was stopped after 45 minutes at room temperature by the addition of 50 μL of 80 mM EDTA, pH 7.5.

Broadly, the Ki is the equilibrium dissociation constant of an inhibitor or competing ligand from its target. Low values mean a stronger hold on the target, high ones a looser hold on the target. With `NS(=O)(=O)N1CCC(Nc2ncc3ccc(=O)n(C4CCCC4)c3n2)CC1` [Example 13, 4-[(8-cyclopentyl-7-oxo-7,8-dihydropyrido[2,3-d]pyrimidin-2-yl)amino]piperidine-1-sulfonamide], the Ki was determined as 0.19 nM on CDK2/Cyclin E1 and 0.88 nM at CDK6/Cyclin D1.

On to `COCCS(=O)(=O)N1CCC(Nc2ncc3ccc(=O)n(C4CCCC4)c3n2)CC1` [Example 15, 8-cyclopentyl-2-({1-[(2-methoxyethyl)sulfonyl]piperidin-4-yl}amino)pyrido[2,3-d]pyrimidin-7(8H)-one], for which the Ki at CDK2/Cyclin E1 worked out at 0.46 nM; at CDK6/Cyclin D1, 0.76 nM.

Turning to `CCS(=O)(=O)N1CCC(Nc2ncc3ccc(=O)n(C4CCCC4)c3n2)CC1` [Example 16, 8-cyclopentyl-2-{[1-(ethylsulfonyl)piperidin-4-yl]amino}pyrido[2,3-d]pyrimidin-7(8H)-one], the Ki at CDK2/Cyclin E1 came to 0.48 nM; at CDK6/Cyclin D1, 1.14 nM.

Take `CC(C)(O)CS(=O)(=O)N1CCC(Nc2ncc3ccc(=O)n(C4CCCC4)c3n2)CC1` [Example 17, 8-cyclopentyl-2-({1-[(2-hydroxy-2-methylpropyl)sulfonyl]piperidin-4-yl}amino)pyrido[2,3-d]pyrimidin-7(8H)-one]: the inhibition constant Ki on CDK2/Cyclin E1 turned out to be 1.79 nM; at CDK6/Cyclin D1, 2.33 nM.

In the case of `CS(=O)(=O)CS(=O)(=O)N1CCC(Nc2ncc3ccc(=O)n(C4CCCC4)c3n2)CC1` [Example 18, 8-cyclopentyl-2-[(1-{[(methylsulfonyl)methyl]sulfonyl}piperidin-4-yl)amino]pyrido[2,3-d] pyrimidin-7(8H)-one], the inhibition constant (Ki) on CDK2/Cyclin E1 was 1.19 nM; on CDK6/Cyclin D1, 2.44 nM.

On to `CNS(=O)(=O)N1CCC(Nc2ncc3ccc(=O)n(C4CCCCCC4)c3n2)CC1` [Example 20, 4-[(8-cycloheptyl-7-oxo-7,8-dihydropyrido[2,3-d]pyrimidin-2-yl)amino]-N-methylpiperidine-1-sulfonamide], for which the inhibition constant Ki came out at 0.42 nM at CDK2/Cyclin E1 and 1.95 nM at CDK6/Cyclin D1.

As to `NS(=O)(=O)N1CCC(Nc2ncc3ccc(=O)n(C4CCCCCC4)c3n2)CC1` [Example 21, 4-[(8-cycloheptyl-7-oxo-7,8-dihydropyrido[2,3-d]pyrimidin-2-yl)amino]piperidine-1-sulfonamide], the inhibition constant (Ki) stood at 0.29 nM at CDK2/Cyclin E1 and 7 nM at CDK6/Cyclin D1.

Take `CNS(=O)(=O)N1CCC(Nc2ncc3cc(C)c(=O)n(C4CCCC4)c3n2)CC1` [Example 23, 4-[(8-cyclopentyl-6-methyl-7-oxo-7,8-dihydropyrido[2,3-d]pyrimidin-2-yl)amino]-N-methylpiperidine-1-sulfonamide]: the Ki on CDK2/Cyclin E1 was 0.78 nM; on CDK6/Cyclin D1, 0.62 nM.

As for `Cc1cc2cnc(NC3CCN(S(N)(=O)=O)CC3)nc2n(C2CCCC2)c1=O` [Example 25, 4-[(8-cyclopentyl-6-methyl-7-oxo-7,8-dihydropyrido[2,3-d]pyrimidin-2-yl)amino]piperidine-1-sulfonamide], the inhibition constant (Ki) at CDK2/Cyclin E1 came to 0.22 nM; at CDK6/Cyclin D1 it was 0.23 nM.

Consider `CS(=O)(=O)N1CCC(Nc2ncc3cc(N)c(=O)n(C4CCCC4)c3n2)CC1` [Example 28, 6-amino-8-cyclopentyl-2-{[1-(methylsulfonyl)piperidin-4-yl]amino}pyrido[2,3-d]pyrimidin-7(8H)-one], for which the inhibition constant Ki turned out to be 1.88 nM on CDK2/Cyclin E1 and 1.2 nM at CDK6/Cyclin D1.

As for `CS(=O)(=O)N1CCC(Nc2ncc3cc(C(F)F)c(=O)n(C4CCCC4)c3n2)CC1` [Example 30, 8-cyclopentyl-6-(difluoromethyl)-2-{[1-(methylsulfonyl)piperidin-4-yl]amino}pyrido[2,3-d]pyrimidin-7(8H)-one], the results for the Ki on CDK2/Cyclin E1 and at CDK6/Cyclin D1 were 1.35 nM and 0.34 nM, respectively.

For `CS(=O)(=O)N1CCC(Nc2ncc3cc(C(F)(F)C(=O)O)c(=O)n(C4CCCC4)c3n2)CC1` [Example 31, (8-cyclopentyl-2-{[1-(methylsulfonyl)piperidin-4-yl]amino}-7-oxo-7,8-dihydropyrido[2,3-d]pyrimidin-6-yl)(difluoro)acetic acid], the Ki on CDK2/Cyclin E1 was found to be 2.43 nM; on CDK6/Cyclin D1, 0.87 nM.

For the compound `Cc1cc2cnc(NC3CCN(S(C)(=O)=O)CC3)nc2n([C@@H]2CCC[C@@H]2C)c1=O` [Example 37, 6-methyl-8-[(1R,2S)-2-methylcyclopentyl]-2-{[1-(methylsulfonyl)piperidin-4-yl]amino}pyrido[2,3-d]pyrimidin-7(8H)-one], the inhibitory constant (Ki) on CDK2/Cyclin E1 and on CDK6/Cyclin D1 was 0.06 nM in each case.

Turning to `C[C@H]1CCC[C@H]1n1c(=O)c(Cl)cc2cnc(NC3CCN(S(C)(=O)=O)CC3)nc21` [Example 38, 6-chloro-8-[(1R,2S)-2-methylcyclopentyl]-2-{[1-(methylsulfonyl)piperidin-4-yl]amino}pyrido[2,3-d]pyrimidin-7(8H)-one], the inhibition constant (Ki) on CDK2/Cyclin E1 is 0.27 nM; at CDK6/Cyclin D1, 0.42 nM.

As for `C[C@H]1CCC[C@H]1n1c(=O)c(CCO)cc2cnc(NC3CCN(S(C)(=O)=O)CC3)nc21` [Example 40, 6-(2-hydroxyethyl)-8-[(1R,2S)-2-methylcyclopentyl]-2-{[1-(methylsulfonyl)piperidin-4-yl]amino}pyrido[2,3-d]pyrimidin-7(8H)-one], the inhibition constant (Ki) at CDK2/Cyclin E1 amounted to 0.08 nM; at CDK6/Cyclin D1 it was 0.14 nM.

As to `C[C@@H]1CCC[C@@H]1n1c(=O)c(CCO)cc2cnc(NC3CCN(S(C)(=O)=O)CC3)nc21` [Example 41, 6-(2-hydroxyethyl)-8-[(1S,2R)-2-methylcyclopentyl]-2-{[1-(methylsulfonyl)piperidin-4-yl]amino}pyrido[2,3-d]pyrimidin-7(8H)-one], the inhibitory constant (Ki) came out at 0.48 nM at CDK2/Cyclin E1 and 0.36 nM at CDK6/Cyclin D1.

`CNS(=O)(=O)N1CCC(Nc2ncc3cc(C)c(=O)n([C@@H]4CCC[C@@H]4C)c3n2)CC1` [Example 42, N-methyl-4-({6-methyl-8-[(1R,2S)-2-methylcyclopentyl]-7-oxo-7,8-dihydropyrido[2,3-d]pyrimidin-2-yl}amino)piperidine-1-sulfonamide]: the inhibition constant (Ki) at CDK2/Cyclin E1 turned out to be 155 nM; at CDK6/Cyclin D1, 46.1 nM.

Consider `CNS(=O)(=O)N1CCC(Nc2ncc3ccc(=O)n([C@@H]4CCC[C@@H]4C)c3n2)CC1` [Example 44, N-methyl-4-({8-[(1R,2S)-2-methylcyclopentyl]-7-oxo-7,8-dihydropyrido[2,3-d]pyrimidin-2-yl}amino)piperidine-1-sulfonamide], for which the Ki at CDK2/Cyclin E1 was found to be 0.09 nM; at CDK6/Cyclin D1, 0.82 nM.

Regarding `C[C@H]1CCC[C@H]1n1c(=O)c(CC(N)=O)cc2cnc(NC3CCN(S(C)(=O)=O)CC3)nc21` [Example 47, 2-(8-[(1R,2S)-2-methylcyclopentyl]-2-{[1-(methylsulfonyl)piperidin-4-yl]amino}-7-oxo-7,8-dihydropyrido[2,3-d]pyrimidin-6-yl)acetamide], the figures for the inhibition constant (Ki) on CDK2/Cyclin E1 and on CDK6/Cyclin D1 were 0.27 nM and 1.09 nM, respectively.

`COCc1cc2cnc(NC3CCN(S(C)(=O)=O)CC3)nc2n([C@@H]2CCC[C@@H]2C)c1=O` [Example 48, 6-(methoxymethyl)-8-[(1R,2S)-2-methylcyclopentyl]-2-{[1-(methylsulfonyl)piperidin-4-yl]amino}pyrido[2,3-d]pyrimidin-7(8H)-one]: the inhibition constant Ki on CDK2/Cyclin E1 was found to be 1.39 nM; at CDK6/Cyclin D1, 0.54 nM.

Consider `COCc1cc2cnc(NC3CCN(S(C)(=O)=O)CC3)nc2n([C@H]2CCC[C@H]2C)c1=O` [Example 49, 6-(methoxymethyl)-8-[(1S,2R)-2-methylcyclopentyl]-2-{[1-(methylsulfonyl)piperidin-4-yl]amino}pyrido[2,3-d]pyrimidin-7(8H)-one], for which the Ki on CDK2/Cyclin E1 amounted to 4.43 nM; on CDK6/Cyclin D1, 1.63 nM.

With `C[C@H]1CCC[C@H]1n1c(=O)c(CO)cc2cnc(NC3CCN(S(C)(=O)=O)CC3)nc21` [Example 50, 6-(hydroxymethyl)-8-[(1R,2S)-2-methylcyclopentyl]-2-{[1-(methylsulfonyl)piperidin-4-yl]amino}pyrido[2,3-d]pyrimidin-7(8H)-one], the inhibitory constant (Ki) at CDK2/Cyclin E1 turned out to be 0.27 nM; at CDK6/Cyclin D1, 0.08 nM.

`C[C@@H]1CCC[C@@H]1n1c(=O)c(CO)cc2cnc(NC3CCN(S(C)(=O)=O)CC3)nc21` [Example 51, 6-(hydroxymethyl)-8-[(1S,2R)-2-methylcyclopentyl]-2-{[1-(methylsulfonyl)piperidin-4-yl]amino}pyrido[2,3-d]pyrimidin-7(8H)-one]: the results for the Ki at CDK2/Cyclin E1 and at CDK6/Cyclin D1 were 1.74 nM and 0.13 nM, respectively.

For the compound `COCCS(=O)(=O)N1CCC(Nc2ncc3ccc(=O)n([C@@H]4CCC[C@@H]4C)c3n2)CC1` [Example 52, 2-({1-[(2-methoxyethyl)sulfonyl]piperidin-4-yl}amino)-8-[(1R,2S)-2-methylcyclopentyl]pyrido[2,3-d]pyrimidin-7(8H)-one], the Ki on CDK2/Cyclin E1 amounted to 0.12 nM; at CDK6/Cyclin D1 it was 0.24 nM.

Take `C[C@@]1(O)CCC[C@H]1n1c(=O)c(C(F)(F)F)cc2cnc(NC3CCN(S(C)(=O)=O)CC3)nc21` [Example 132, 8-[(1R,2R)-2-hydroxy-2-methylcyclopentyl]-2-{[1-(methylsulfonyl)piperidin-4-yl]amino}-6-(trifluoromethyl)pyrido[2,3-d]pyrimidin-7(8H)-one]: the Ki turned out to be 0.57 nM on CDK2/Cyclin E1 and 0.37 nM at CDK6/Cyclin D1.

Regarding `CC(C)S(=O)(=O)N1CCC(Nc2ncc3cc(CCO)c(=O)n(C4CCCC4)c3n2)CC1` [Example 136, 8-cyclopentyl-6-(2-hydroxyethyl)-2-{[1-(propan-2-ylsulfonyl)piperidin-4-yl]amino}pyrido[2,3-d]pyrimidin-7(8H)-one], the inhibition constant (Ki) worked out at 3.14 nM at CDK2/Cyclin E1 and 1.35 nM at CDK6/Cyclin D1.

With `C#CCCS(=O)(=O)N1CCC(Nc2ncc3cc(N)c(=O)n(C4CCCC4)c3n2)CC1` [Example 137, 6-amino-2-{[1-(but-3-yn-1-ylsulfonyl)piperidin-4-yl]amino}-8-cyclopentylpyrido[2,3-d]pyrimidin-7(8H)-one], the inhibition constant Ki on CDK2/Cyclin E1 stood at 4.08 nM; at CDK6/Cyclin D1, 6.3 nM.

Consider `CS(=O)(=O)N1CCC(Nc2ncc3cc(CC(F)F)c(=O)n([C@@H]4CCC[C@@H](O)C4)c3n2)CC1` [Example 140, 6-(2,2-difluoroethyl)-8-[(1R,3R)-3-hydroxycyclohexyl]-2-{[1-(methylsulfonyl)piperidin-4-yl]amino}pyrido[2,3-d]pyrimidin-7(8H)-one], for which the Ki amounted to 1.97 nM at CDK2/Cyclin E1 and 0.63 nM on CDK6/Cyclin D1.
